Experimental data reported in patent publication US5453417A, “Process for the phosphorylation of insulin and product produced thereby” (The Hospital for Sick Children, priority 1991, dated 1995).

Key:
Format in all cases: in vivo, dog
[1] = test system: normal, fasted, beagle dogs; test: intravenous bolus, rate of decline of plasma glucose in 15 minutes following the injection; conditions: i.v. bolus, phosphorylated insulin = product of Example 2
Description: Phosphorylated insulin produced by the process described in Example 2 and regular insulin (Iletin II pure Pork) were injected as an intravenous bolus into 4 normal, fasted, beagle dogs. Each insulin was injected at a wide range of dosage with not more than one experiment on each dog on any given day. The plasma glucose of each dog was measured (YSI) at 2 minute intervals for 15 minutes following the injection and the rate of decline of glucose from normal was determined in this period for each individual insulin dose. When the data from FIG. 8 are analysed, it can be shown that the % change in insulin dose required to produce a given increase in glucose drop (glucose disposal) is greater for phosphorylated than for regular (unmodified) insulin. Thus, for example, in Table 4, a 28% increase in dose of regular insulin from that which produced a glucose drop of 3.5 mg %/min., caused the "rate of drop of glucose" to increase from 3.5 to 4.0 mg %/min. A 66 % increase in dose of phosphorylated insulin was required to produce the same effect.

diabetic dogs = test: continuous 24 hour infusion, increase of infusion rate needed to lower 8 a.m. fasting plasma glucose; conditions: two diabetic dogs, phosphorylated insulin = product prepared as Example 6 (FIG. 12)
Description: Two diabetic dogs were fed a single daily meal of 1100 kcal at 2:00 p.m. daily and given regular (i.e. fast acting) insulin at meal time.
In addition, dogs were infused continuously, 24 hours per day with either regular or phosphorylated insulin (product prepared as example 6).
During repeated experiments the minimum insulin infusion rate required to produce a mean 8 a.m. fasting plasma glucose of 95 mg % was determined for each insulin.

[2] = test system: diabetic (pancreatectomized) dogs; test: continuous insulin infusion at Max Rate and reduced rates, plasma glucose plateau under fasting conditions
Description: The initial step in the protocol involved determining the required insulin infusion rate of either regular or phosphorylated insulin that would, under fasting conditions, reduce plasma glucose from normal at 7:30 a.m. to a plateau of 60 mg %, 2-4 hours later. […] The rate that produced this reduction of blood glucose to 60 mg % was termed "Max Rate".
On subsequent days, identical experiments were conducted on all 4 diabetic dogs with the exception that the animals received a reduced rate of insulin infusion equal to either 1) 62% of the "Max Rate" as shown in FIG. 6 or 2) 36% of the "Max Rate" as shown in FIG. 7.
In this test, the dogs infused with regular insulin reached a glucose threshold of 180 mg % (renal threshold at which the kidneys begin to spill glucose into the urine). The phosphorlated infused dogs reached a lower average glucose level of 120-130 mg %.
All protocols described were conducted in triplicate on all dogs.

Substance: regular insulin: regular (unmodified) insulin, fast acting; Iletin II pure Pork in Example 32 [reference compound]
- Required % Increase In Insulin Dose ([1]; change in rate of drop of glucose from 1.0 to 1.5 mg %/min): 49%
- Required % Increase In Insulin Dose ([1]; change in rate of drop of glucose from 1.5 to 2.0 mg %/min): 33%
- Required % Increase In Insulin Dose ([1]; change in rate of drop of glucose from 2.0 to 2.5 mg %/min): 25%
- Required % Increase In Insulin Dose ([1]; change in rate of drop of glucose from 2.5 to 3.0 mg %/min): 20%
- Required % Increase In Insulin Dose ([1]; change in rate of drop of glucose from 3.0 to 3.5 mg %/min): 39%
- Required % Increase In Insulin Dose ([1]; change in rate of drop of glucose from 3.5 to 4.0 mg %/min): 28%
- Required % Increase In Insulin Dose ([1]; change in rate of drop of glucose from 4.0 to 4.5 mg %/min): 34%
- increase of insulin infusion rate required to drop the fasting glucose from 95 to 70 mg % (diabetic dogs): 20%
- plasma glucose plateau ([2]; infusion at Max Rate, fasting, last 2 hours, phosphorylated insulin = product of Example 3, 4 diabetic dogs (FIG. 5)): 60 mg %
- average glucose level reached ([2]; infusion rate reduced to 36% of Max Rate, phosphorylated insulin = product of Example 3 (FIG. 7)): 180 mg %
- average plasma glucose plateau ([2]; infusion rate reduced to 62% of Max Rate, phosphorylated insulin = product of Example 3 (FIG. 6)): 150 mg %
